The test has as its system CD2F1 mice, L1210 leukemia ip, survival T/C. As to the kind of experiment: NCI In Vivo Anticancer Drug Screen. Data for tumor model L1210 Leukemia (intraperitoneal) in CD2F1 (CDF1) mice. The following applies: higher = longer survival. A digest of the protocol:
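Activity against a transplanted murine tumor was judged by comparing the compound group with a vehicle group. The outcome in the treated animals was divided by that in the controls.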

The mark [1] stands for this setting: endpoint: mean survival time, dose: 100.0 mg/kg/injection, schedule: Q04DX002 (ip), vehicle: saline with Tween-80.
[2] abbreviates: endpoint: mean survival time, dose: 50.0 mg/kg/injection, schedule: Q01DX009 (ip), vehicle: saline with Tween-80.
Where [3] appears, read: endpoint: mean survival time, dose: 100.0 mg/kg/injection, schedule: Q01DX009 (ip), vehicle: saline with Tween-80.
The mark [4] stands for this setting: endpoint: mean survival time, dose: 100.0 mg/kg/injection, schedule: Q04DX003 (ip), vehicle: saline with Tween-80.
Setting [5] is: endpoint: mean survival time, dose: 200.0 mg/kg/injection, schedule: Q01DX009 (ip), vehicle: saline with Tween-80.
Where [6] appears, read: endpoint: mean survival time, dose: 200.0 mg/kg/injection, schedule: Q04DX003 (ip), vehicle: saline with Tween-80.
Setting [7] is: endpoint: mean survival time, dose: 75.0 mg/kg/injection, schedule: Q01DX001 (ip), vehicle: saline.
Where [8] appears, read: endpoint: mean survival time, dose: 100.0 mg/kg/injection, schedule: Q01DX001 (ip), vehicle: saline with Tween-80.
The mark [9] stands for this setting: endpoint: mean survival time, dose: 200.0 mg/kg/injection, schedule: Q01DX001 (ip), vehicle: saline with Tween-80.
[10] abbreviates: endpoint: mean survival time, dose: 400.0 mg/kg/injection, schedule: Q01DX001 (ip), vehicle: saline with Tween-80.
[11] abbreviates: endpoint: mean survival time, dose: 400.0 mg/kg/injection, schedule: Q01DX009 (ip), vehicle: saline with Tween-80.
[12] abbreviates: endpoint: mean survival time, dose: 400.0 mg/kg/injection, schedule: Q04DX003 (ip), vehicle: saline with Tween-80.

“And” between values parts separate entries of the source, which are not always exact repeats. Identical values can stand only once. Toxic doses and inconclusive results are not listed.

`O=C1c2c(O)cccc2-c2nn(CCNCCO)c3ccc(NCCNCCO)c1c23`: the T/C runs as follows: (endpoint: median survival time, dose: 1.38 mg/kg/injection, schedule: Q01DX009 (ip), vehicle: water) 170 % of control; (endpoint: median survival time, dose: 2.75 mg/kg/injection, schedule: Q01DX009 (ip), vehicle: water) 240 % of control and 370 % of control; (endpoint: median survival time, dose: 5.5 mg/kg/injection, schedule: Q01DX009 (ip), vehicle: water) 222 % of control and 361 % of control; (endpoint: median survival time, dose: 11.0 mg/kg/injection, schedule: Q01DX009 (ip), vehicle: water) 101 % of control and 107 % of control; (endpoint: median survival time, dose: 22.0 mg/kg/injection, schedule: Q01DX009 (ip), vehicle: water) 87 % of control.

Turning to `CN(C)c1nc(-c2ccncc2)nc(N(C)C)n1`, the T/C under setting [1] is 92 % of control.

As for `CCOC(=O)/C=C(\C)CO`, the T/C is 88 % of control under setting [1]; 103 % of control (endpoint: mean survival time, dose: 200.0 mg/kg/injection, schedule: Q04DX002 (ip), vehicle: saline with Tween-80); 103 % of control (endpoint: mean survival time, dose: 400.0 mg/kg/injection, schedule: Q04DX002 (ip), vehicle: saline with Tween-80).

On to `CC(C)(C)c1cccc(C(C)(C)C)c1OC(=O)NS(=O)(=O)c1ccccc1`, for which the T/C by setting is: (endpoint: mean survival time, dose: 12.5 mg/kg/injection, schedule: Q04DX003 (ip), vehicle: acetone) 101 % of control; (endpoint: mean survival time, dose: 25.0 mg/kg/injection, schedule: Q04DX003 (ip), vehicle: acetone) 101 % of control; (endpoint: mean survival time, dose: 50.0 mg/kg/injection, schedule: Q04DX003 (ip), vehicle: acetone) 113 % of control.

In the case of `Clc1nc2ccccc2c2ccccc12`, the T/C runs as follows: under setting [2], 97 % of control; under setting [3], 94 % of control; under setting [4], 109 % of control; under setting [5], 92 % of control; under setting [6], 111 % of control.

With `C#CCN(C)CCO`, the T/C runs as follows: (endpoint: mean survival time, dose: 100.0 mg/kg/injection, schedule: Q01DX009 (ip), vehicle: acetone) 103 % of control; (endpoint: mean survival time, dose: 200.0 mg/kg/injection, schedule: Q01DX009 (ip), vehicle: acetone) 97 % of control; (endpoint: mean survival time, dose: 400.0 mg/kg/injection, schedule: Q01DX009 (ip), vehicle: acetone) 100 % of control.

For the compound `CC1CC(C)(C)CC(=O)O1` (stereo not drawn), under setting [7], the T/C is 101 % of control.

In the case of `O=C1CN=C(c2ccccc2)O1`, the T/C is 100 % of control (endpoint: median survival time, dose: 50.0 mg/kg/injection, schedule: Q04DX002 (ip), vehicle: saline with Tween-80); 100 % of control (endpoint: median survival time, dose: 100.0 mg/kg/injection, schedule: Q04DX002 (ip), vehicle: saline with Tween-80); 111 % of control (endpoint: median survival time, dose: 200.0 mg/kg/injection, schedule: Q04DX002 (ip), vehicle: saline with Tween-80); 100 % of control (endpoint: median survival time, dose: 400.0 mg/kg/injection, schedule: Q04DX002 (ip), vehicle: saline with Tween-80).

On to `CCC1(c2cccc([N+](=O)[O-])c2)OCCO1`, for which the T/C is 94 % of control under setting [8]; 102 % of control under setting [3]; 102 % of control under setting [4]; 94 % of control under setting [9]; 110 % of control under setting [5]; 107 % of control under setting [6]. The T/C is, setting by setting: under setting [10], 94 % of control; under setting [11], 103 % of control; under setting [12], 102 % of control.

Take `O=C1C=C(N2CC2)C(=O)C(N2CC2)=C1N1CC1`: the T/C was 113 % of control (endpoint: median survival time, dose: 12.5 micrograms/kg/injection, schedule: Q01DX009 (ip), vehicle: saline); 96 % of control (endpoint: median survival time, dose: 25.0 micrograms/kg/injection, schedule: Q01DX009 (ip), vehicle: saline with Tween-80); 113 % of control (endpoint: median survival time, dose: 25.0 micrograms/kg/injection, schedule: Q01DX009 (ip), vehicle: saline); 118 % of control and 108 % of control (endpoint: median survival time, dose: 50.0 micrograms/kg/injection, schedule: Q01DX009 (ip), vehicle: saline with Tween-80); 156 % of control (endpoint: median survival time, dose: 100.0 micrograms/kg/injection, schedule: Q01DX009 (ip), vehicle: saline with Tween-80); 164 % of control and 190 % of control (endpoint: median survival time, dose: 200.0 micrograms/kg/injection, schedule: Q01DX009 (ip), vehicle: saline with Tween-80). For the same compound, the T/C (endpoint: median survival time, dose: 400.0 micrograms/kg/injection, schedule: Q01DX009 (ip), vehicle: saline with Tween-80) was 87 % of control and 91 % of control.

Take `O=S(=O)(CC(I)c1ccccc1)c1ccccc1` (stereo not drawn): the T/C was 99 % of control (endpoint: mean survival time, dose: 75.0 mg/kg/injection, schedule: Q01DX009 (ip), vehicle: saline); 91 % of control (endpoint: mean survival time, dose: 150.0 mg/kg/injection, schedule: Q01DX009 (ip), vehicle: saline); 92 % of control (endpoint: mean survival time, dose: 300.0 mg/kg/injection, schedule: Q01DX009 (ip), vehicle: saline).

For the compound `COc1ccc(C(=O)CCN2CCC(O)(c3ccccc3)CC2)cc1`, the T/C reads like this: (endpoint: mean survival time, dose: 12.5 mg/kg/injection, schedule: Q01DX009 (ip), vehicle: saline with Tween-80) 93 % of control; (endpoint: mean survival time, dose: 25.0 mg/kg/injection, schedule: Q01DX009 (ip), vehicle: saline with Tween-80) 97 % of control; under setting [2], 89 % of control.

As for `CSCCCCCCSC`, the T/C is, setting by setting: under setting [4], 95 % of control; under setting [6], 101 % of control.

Take `CC(=O)S[C@@H]1CC2=CC(=O)CC[C@]2(C)[C@H]2CC[C@@]3(C)[C@@H](CC[C@@]34CCC(=O)O4)[C@H]12`: the T/C by setting is: (endpoint: mean survival time, dose: 100.0 mg/kg/injection, schedule: Q04DX003 (sc), vehicle: steriod suspending solution) 95 % of control; (endpoint: mean survival time, dose: 200.0 mg/kg/injection, schedule: Q04DX003 (sc), vehicle: steriod suspending solution) 97 % of control; (endpoint: mean survival time, dose: 400.0 mg/kg/injection, schedule: Q04DX003 (sc), vehicle: steriod suspending solution) 98 % of control.

For the compound `CCCCCCCCCCC(CCCCCCCCCC)=NN=C(CCCCCCCCCC)CCCCCCCCCC`, the T/C was 90 % of control (endpoint: mean survival time, dose: 100.0 mg/kg/injection, schedule: Q01DX001 (ip), vehicle: Klucel (hydroxypropylcellulose) (HPC)); 86 % of control (endpoint: mean survival time, dose: 200.0 mg/kg/injection, schedule: Q01DX001 (ip), vehicle: Klucel (hydroxypropylcellulose) (HPC)); 90 % of control (endpoint: mean survival time, dose: 400.0 mg/kg/injection, schedule: Q01DX001 (ip), vehicle: Klucel (hydroxypropylcellulose) (HPC)).

With `CNC(=O)C1CCC(CC2CCCCC2)CC1` (stereo not drawn), the T/C is, setting by setting: under setting [8], 93 % of control; under setting [9], 93 % of control; under setting [10], 102 % of control.

With `CC(C)(C(=O)O)C(C)(C)C(=O)O`, the T/C is, setting by setting: under setting [8], 98 % of control; under setting [9], 98 % of control; under setting [10], 101 % of control.

Turning to `[Cl][Pt+2][Cl].[NH-]C(CC([NH-])c1ccccc1)c1ccccc1` (stereo not drawn), the T/C (endpoint: mean survival time, dose: 6.25 mg/kg/injection, schedule: Q04DX003 (ip), vehicle: saline with Tween-80) is 119 % of control and 113 % of control and 115 % of control; the T/C (endpoint: mean survival time, dose: 12.5 mg/kg/injection, schedule: Q04DX003 (ip), vehicle: saline with Tween-80) was 121 % of control and 113 % of control and 119 % of control; the T/C (endpoint: mean survival time, dose: 25.0 mg/kg/injection, schedule: Q04DX003 (ip), vehicle: saline with Tween-80) was 122 % of control and 113 % of control and 119 % of control.

Take `COC(=O)c1ccc(NCC(=N)N)cc1`: the T/C was 100 % of control (endpoint: mean survival time, dose: 50.0 mg/kg/injection, schedule: Q01DX009 (ip), vehicle: saline); 122 % of control (endpoint: mean survival time, dose: 100.0 mg/kg/injection, schedule: Q01DX009 (ip), vehicle: saline); 100 % of control (endpoint: mean survival time, dose: 200.0 mg/kg/injection, schedule: Q01DX009 (ip), vehicle: saline).

For the compound `CC(=O)C1C(=O)OC2(C)C(=O)C3=COC(/C=C\C(C)=C/C(C)C)=CC3=CC12` (stereo not drawn), the T/C reads like this: under setting [3], 100 % of control; under setting [5], 104 % of control; under setting [6], 91 % of control; under setting [11], 111 % of control; under setting [12], 88 % of control.

For the compound `O=S(=O)(F)c1ccc(C[P+](c2ccccc2)(c2ccccc2)c2ccccc2)c(Cl)c1`, the T/C (endpoint: mean survival time, dose: 18.8 mg/kg/injection, schedule: Q01DX009 (ip), vehicle: saline) was 103 % of control; the T/C (endpoint: mean survival time, dose: 18.8 mg/kg/injection, schedule: Q04DX003 (ip), vehicle: saline) was 114 % of control; the T/C (endpoint: mean survival time, dose: 37.5 mg/kg/injection, schedule: Q01DX009 (ip), vehicle: saline) was 100 % of control; the T/C (endpoint: mean survival time, dose: 37.5 mg/kg/injection, schedule: Q04DX003 (ip), vehicle: saline) was 116 % of control; the T/C under setting [7] is 103 % of control; the T/C (endpoint: mean survival time, dose: 75.0 mg/kg/injection, schedule: Q04DX003 (ip), vehicle: saline) is 112 % of control.

The record behind these values is PubChem BioAssay AID256 (DTP/NCI, 2004).
